From US20230364079A1, “COMPOUND AS BRAIN-PERMEABLE BTK OR HER2 INHIBITOR, PREPARATION METHOD THEREFOR, AND USE THEREOF” (CHENGDU HYPERWAY PHARMACEUTICALS CO., LTD., priority 2020, published 2023)

Columns and labels:
BTK wild-type kinase = BTK wild-type kinase (Homo sapiens (Human), UniProt Q06187); experiment: BTK kinase activity inhibition test in vitro (Caliper EZ Reader); assay type: biochemical
Procedure, shortened: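 Compound (10 mM DMSO stock) preincubated with kinase 10 min at room temperature, then ATP plus kinase substrate 2 added, 10 min reaction at room temperature before stop. Substrate conversion read by Caliper mobility shift; inhibition normalised to no-enzyme and no-compound controls, IC50 by variable-slope log(inhibitor) fit.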

[1] = Liver microsome metabolic stability test, rat; assay type: in vitro ADME; conditions: for half-life: liver microsomes, 0.5 mg/mL protein, read-out: T½
Procedure: (§1) 1: To the sample wells of T0, T5, T10, T20, T30, T60 and NCF60, 10 µL of the test or reference working solution and 80 µL of microsome working solution (hepatic microsome with a protein concentration of 0.5 mg/mL) were added, and to Blank60 well, only the microsome working solution was added. Then samples of the Blank60, T5, T10, T20, T30 and T60 other than T0 and NCF60 were placed in a 37° C. water bath and pre-incubated for about 10 min.
(§2) 2: To the T0 sample well, 300 µL of stop solution (containing 200 ng/mL tolbutamide and 200 ng/mL labetalol in acetonitrile solution) was added first, followed by 10 µL of NADPH regeneration system working solution.
(§3) 3: After the pre-incubation of Blank60, T5, T10, T20, T30 and T60 incubation plates, 10 µL of NADPH regeneration system working solution was added to each sample well to start the reaction, and 10 µL of 100 mM potassium phosphate buffer was added to the NCF60 sample well.
(§4) 4: After incubation for an appropriate time (such as 5, 10, 20, 30 and 60 min), to each test sample well and control well of the Blank60, T5, T10, T20, T30, T60 and NCF60 plates, 300 µL of stop solution was added to terminate the reaction.
(§5) 5: All sample plates were shaken to mix well and centrifuged at 4000 rpm for 20 min, and 100 µL of the supernatant of the test sample or control sample was taken and diluted with 300 µL of pure water for LC-MS/MS analysis.
(§6) 6: Data analysis: T½ and CLint(mic) (µL/min/mg) values were calculated according to the first-order elimination kinetics. The first-order elimination kinetics equation was: […]

[2] = Liver microsome metabolic stability test, human; assay type: in vitro ADME; conditions: for half-life: liver microsomes, 0.5 mg/mL protein, read-out: T½
Procedure: as §1, §2, §3, §4, §5, §6

[3] = molecular target: BTK mutation-type C481S kinase (Homo sapiens (Human), UniProt Q06187, C481S); experiment: BTK-C481S kinase activity inhibition test in vitro (Caliper EZ Reader); assay type: biochemical
Chain of BTK mutation-type C481S kinase (Q06187 whole entry C481S): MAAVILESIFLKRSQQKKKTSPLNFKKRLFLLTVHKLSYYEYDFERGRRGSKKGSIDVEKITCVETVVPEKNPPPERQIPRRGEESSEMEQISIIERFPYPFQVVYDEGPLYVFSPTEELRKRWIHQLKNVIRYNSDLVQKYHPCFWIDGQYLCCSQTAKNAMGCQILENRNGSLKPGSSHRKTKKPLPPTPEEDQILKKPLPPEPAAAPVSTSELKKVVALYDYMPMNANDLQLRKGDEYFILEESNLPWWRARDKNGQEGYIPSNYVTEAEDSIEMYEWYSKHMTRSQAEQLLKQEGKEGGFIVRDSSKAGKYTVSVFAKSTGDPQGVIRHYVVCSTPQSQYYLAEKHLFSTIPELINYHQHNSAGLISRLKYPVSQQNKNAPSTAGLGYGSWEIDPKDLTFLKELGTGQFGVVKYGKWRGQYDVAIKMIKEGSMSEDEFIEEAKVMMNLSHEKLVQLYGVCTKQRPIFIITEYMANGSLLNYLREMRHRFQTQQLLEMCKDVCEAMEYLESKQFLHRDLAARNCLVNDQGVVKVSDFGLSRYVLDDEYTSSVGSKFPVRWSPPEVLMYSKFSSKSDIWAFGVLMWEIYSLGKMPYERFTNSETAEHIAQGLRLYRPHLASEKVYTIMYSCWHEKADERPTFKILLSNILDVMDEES
Procedure: In the tests on the activity of inhibiting BTK and HER2 kinase in vitro in the examples of the present disclosure, powder of the compound was dissolved in 100% DMSO to prepare a 10 mM stock solution and stored at-20° C. in the dark. […] In addition, the compounds were subjected to experiments such as liver microsome metabolic stability, rat PK, rat brain penetration rate, and drug efficacy model in the examples of the present disclosure.
Compound powders were dissolved in 100% DMSO to make 10 mM stock solutions, which were stored at -20° C. in the dark.
2: Kinase Reaction Process
(1) Preparation of 1 × Kinase buffer.
(5) After centrifugation at 1000 rpm for 30 seconds, the reaction plate was shaken to mix well and incubated at room temperature for 10 min.
(6) A 5/3-fold final concentration of a mixed solution of ATP and Kinase substrate 2 was prepared with 1 × Kinase buffer.
(7) 15 µL of the mixed solution of ATP and substrate with 5/3-fold final concentration was added to start the reaction.
(8) The 384-well plate was centrifuged at 1000 rpm for 30 seconds, shaken to mix well, and incubated at room temperature for 10 min.
(9) 30 µL of a stop solution was added to stop the kinase reaction, and after centrifugation at 1000 rpm for 30 seconds, the plate was shaken to mix well;
(10) The conversion rate was read with Caliper EZ Reader.
where Conversion%_sample indicates the conversion rate reading of the sample; Conversion%_min is the average reading of the negative control wells, representing the conversion rate reading of the wells without enzyme activity; Conversion%_max is the average reading of the ratio of the positive control wells, representing the conversion rate reading of the wells without compound inhibition.
Dose-Response Curve Fitting
With the log value of the concentration as the X-axis, and the percentage inhibition rate as the Y-axis, the dose-effect curve was fitted using the log(inhibitor) vs. response-Variable slope of the analysis software GraphPad Prism 5, so as to determine the IC50 value of each compound on the enzyme activity.
The calculation formula was: […]

[4] = Pharmacokinetic test, oral, SD rats; assay type: in vivo; conditions: oral 10 mg/kg, plasma; for AUC(0-inf) / Cmax / half-life: rat; for Cmax: read-out: Cmax; for half-life: read-out: T½ (converted)
Procedure: Each test compound was administered orally (10 mg/kg, 3 rats in each group) to SD rats for pharmacokinetic study. […] Animals were fasted overnight before oral administration, and fed again after 4 h of administration. […] At each collection time point, 3 whole blood samples were collected at a the collection volume of about 0.2-0.3 mL. […] The collected plasma was stored at -20° C. before analysis. 20 µL of plasma sample was added into a 1.6 mL 96-well deep-well plate, added with 200 µL of working internal standard solution (the same volume of vehicle was added to the blank instead of internal standard), vortexed for 1 min, and centrifuged at 5800 rpm for 10 min. 100 µL of the supernatant was added to a 96-well injection plate for LC-MS/MS analysis.

Chain of BTK wild-type kinase (Q06187 whole entry): as the sequence (Q06187 whole entry C481S) above, with S481C counted along it

SMILES	IC50 (BTK wild-type kinase) [nM]	%Remaining (60 min) [1] [%]	half-life [1] [min]	%Remaining (60 min) [2] [%]	half-life [2] [min]	IC50 [3] [nM]	Cl [4] [mL/min/kg]	AUC(0-inf) [4] [ng·h/mL]	Cmax [4] [ng/mL]	half-life [4] [min]
Cc1cccc(Oc2ccc(-c3nc(C4CCC(CO)OC4)n4ccnc(N)c34)cc2)c1F (centres unmarked) [Compound 24]	< 5	0.1	5.4	9.7	18.5					
Nc1nccn2c(C3CCC(CO)OC3)nc(-c3ccc(C(=O)c4ccccc4)cc3)c12 (centres unmarked) [Compound 26]	5 to 20	24.5	30.1	39.1	44.5	5 to 20				
Nc1nccn2c(C34CCC(CO)(CC3)OC4)nc(-c3ccc(C(=O)Nc4ccccn4)cc3)c12 [Compound 34]	5 to 20	90.3	> 145	112.0	> 145	5 to 20	8.1	20600	11100	102
COc1ccccc1C(=O)NCc1ccc(-c2nn(C3CCC(CO)OC3)c3ncnc(N)c23)cc1 (centres unmarked) [Compound 60-A]		69		109.9						
Nc1nccn2c(C3CCC(CO)OC3)nc(-c3ccc(Oc4c(F)cccc4F)cc3)c12 (centres unmarked) [Compound 64]	5 to 20	8.5	17	31.7	37.7					
Cc1ccnc(NC(=O)c2ccc(-c3nc(C4CCC(CO)OC4)n4ccnc(N)c34)cc2)c1 (centres unmarked) [Compound 70]	5 to 20	37.3	45.7	77.7	105					
COc1cccc(Oc2ccc(-c3nc(C4CCC(CO)OC4)n4ccnc(N)c34)cc2)c1 (centres unmarked) [Compound 101]	< 5	39.5	46.5	81.1	> 145		48.75	3670	1770	75
Nc1nccc2c1n(-c1ccc(Oc3ccccc3)cc1)c(=O)n2C1CCC(CO)OC1 (centres unmarked) [Compound 120]	20 to 100					5 to 20				
COc1cccc(C(F)(F)c2ccc(-c3nc(C4CCC(CO)OC4)n4ccnc(N)c34)cc2)c1 (centres unmarked) [Compound 121]	5 to 20					5 to 20				
Nc1nccn2c(C3CCC(CO)OC3)nc(-c3ccc(C(F)(F)c4cc(C(F)(F)F)ccn4)cc3)c12 (centres unmarked) [Compound 124]	100 to 1000					100 to 1000				
Nc1nccn2c(C34CCC(CO)(CC3)OC4)nc(-c3ccc(C(F)(F)c4cccc(Cl)c4F)cc3)c12 [Compound 152]	100 to 1000	25.8	13.5	25.4	30.2		272.78	1330	200	169
Nc1nccn2c(C34CCC(CO)(CC3)OC4)nc(-c3ccc(C(F)(F)c4ccccc4Cl)cc3)c12 [Compound 155]	100 to 1000	14.2	22.3	25.8	33.3					
